Consider 20 compounds from patent publication US10407398B2, “Inhibitors of Pseudomonas aeruginosa LecB” (priority 2015, dated 2019).

One may read the IC50 as the concentration that inhibits the measured activity by half. Low readings indicate inhibition by little substance, high ones a need for much substance.

For assay [1], the target named is T1, LecBPAO1 (Pseudomonas aeruginosa, UniProt Q9HYN5).
T1 construct: made in house
The experiment in a line: biochemical. The class given is binding.

Assay [2] addresses T2, LecBPA14 (Pseudomonas aeruginosa, UniProt A0A0H2ZE85). The assay can be described thus: biochemical. The class given is binding, Pseudomonas aeruginosa UCBPP-PA14. As for the experimental part: The measured intensities were reduced by buffer values and fluorescence polarization was calculated. The data were analyzed using BMG Labtech MARS software and/or with Graphpad Prism and fitted according to the four parameter variable slope model. […] A minimum of three independent measurements of triplicates each was performed for every ligand.

Assay [3] concerns the target T1, LecBPAO1. The experiment in a line: Microcalorimetric assay (ITC) for direct binding. Particulars: LecBPAO1; for N: ITC binding stoichiometry, one site binding model; for ΔH / −TΔS: ITC, 25° C. As for the experimental part:
(§1) The temperature of the sample cell was 25° C. The titration was performed with a solution of ligands in the same buffer.

Assay [4] has as its target T2, LecBPA14. The experiment in a line: biochemical. The class given is binding, Pseudomonas aeruginosa UCBPP-PA14. Conditions: LecBPA14; for N: ITC binding stoichiometry, one site binding model. The procedure:
as §1

T2 sequence (A0A0H2ZE85 entry or part of it): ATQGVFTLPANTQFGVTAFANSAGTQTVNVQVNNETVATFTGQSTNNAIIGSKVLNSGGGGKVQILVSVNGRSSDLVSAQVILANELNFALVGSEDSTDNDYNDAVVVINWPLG
T1 sequence (Q9HYN5 entry or part of it): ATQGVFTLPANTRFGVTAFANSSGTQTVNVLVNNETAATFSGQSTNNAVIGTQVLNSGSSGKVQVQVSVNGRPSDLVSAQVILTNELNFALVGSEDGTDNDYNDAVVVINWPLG

`CC1O[C@H](CNS(=O)(=O)c2ccsc2)C(O)C(O)[C@@H]1O` (stereo partly drawn): the IC50 came out at 1.85 ± 0.13 µM against LecBPAO1 [1] and 0.64 ± 0.27 µM against LecBPA14 [2].
On to `Cc1ccc(S(=O)(=O)NC[C@H]2OC(C)[C@@H](O)C(O)C2O)s1` (stereo partly drawn), for which the IC50 on LecBPAO1 [1] turned out to be 3.49 ± 0.21 µM; against LecBPA14 [2], 0.65 ± 0.35 µM.
Taken in the same sequence, the figures for `CC1O[C@H](CNS(=O)(=O)c2ccc(Br)s2)C(O)C(O)[C@@H]1O` (stereo partly drawn) were 3.2 ± 0.37 µM and 0.62 ± 0.39 µM.
Turning to `CC1O[C@H](CNS(=O)(=O)c2ccco2)C(O)C(O)[C@@H]1O` (stereo partly drawn), the IC50 against LecBPAO1 [1] was 3.48 ± 0.75 µM; at LecBPA14 [2] it was 0.48 ± 0.01 µM.
With `Cc1cc(S(=O)(=O)NC[C@H]2OC(C)[C@@H](O)C(O)C2O)c(C(F)(F)F)o1` (stereo partly drawn), the figures for the IC50 at LecBPAO1 [1] and on LecBPA14 [2] were 3.88 ± 0.7 µM and 0.49 ± 0.11 µM, respectively.
On to `CC1O[C@H](CNS(=O)(=O)c2cn(C)cn2)C(O)C(O)[C@@H]1O` (stereo partly drawn), for which the IC50 against LecBPAO1 [1] was 14.2 ± 3.57 µM; at LecBPA14 [2], 1.86 ± 0.23 µM.
Taken in the same sequence, the figures for `CC1O[C@H](CNS(=O)(=O)c2ccn(C)n2)C(O)C(O)[C@@H]1O` (stereo partly drawn) were 6.79 ± 1.81 µM and 0.7 ± 0.03 µM.
In the case of `Cc1csc(S(=O)(=O)NC[C@H]2OC(C)[C@@H](O)C(O)C2O)c1` (stereo partly drawn), the IC50 is 2.51 ± 0.54 µM at LecBPAO1 [1] and 0.31 ± 0.04 µM at LecBPA14 [2].
`CCc1ccc(S(=O)(=O)NC[C@H]2OC(C)[C@@H](O)C(O)C2O)s1` (stereo partly drawn): the IC50 at LecBPAO1 [1] came out at 4.22 ± 1.13 µM; on LecBPA14 [2], 0.44 ± 0.04 µM.
On to `CC1O[C@H](CNC(=O)c2ccccc2)C(O)C(O)[C@@H]1O` (stereo partly drawn), for which 8.73 ± 0.6 µM corresponded to half-maximal inhibition against LecBPAO1 [1] (IC50).
On to `CC1O[C@H](CNC(=O)c2cc3ccccc3o2)C(O)C(O)[C@@H]1O` (stereo partly drawn), for which the values for the IC50 against LecBPAO1 [1] and against LecBPA14 [2] were 10.2 ± 0.86 µM and 2.56 ± 0.33 µM, respectively.
Take `CC1O[C@H](CNS(=O)(=O)c2cccs2)C(O)C(O)[C@@H]1O` (stereo partly drawn): at LecBPAO1 [3], the N came out at 0.92 ± 0.05, the “ΔH” value is -11.5 ± 0.0956 kcal/mol and the “−TΔS” value amounted to 3.2 ± 0.0335 kcal/mol. This compound registered a N at LecBPA14 [4] of 0.87 ± 0.08. For the same compound, at LecBPA14 [4] (ITC, 25° C.), the “ΔG” value was -8.91 ± 0.0693 kcal/mol, the “ΔH” value was -12 ± 0.617 kcal/mol and the “−TΔS” value turned out to be 3.04 ± 0.645 kcal/mol.
As to `Cc1cc(S(=O)(=O)NC[C@H]2OC(C)[C@@H](O)C(O)C2O)c(C)s1` (stereo partly drawn), the N on LecBPAO1 [3] worked out at 0.98 ± 0.03; at LecBPA14 [4], 0.98 ± 0.06. In addition, the “ΔH” value is -11.3 ± 0.287 kcal/mol on LecBPAO1 [3] and -9.66 ± 0.265 kcal/mol at LecBPA14 [4] (ITC, 25° C.). The “−TΔS” value worked out at 3.23 ± 0.33 kcal/mol on LecBPAO1 [3] and 0.786 ± 0.402 kcal/mol at LecBPA14 [4] (ITC, 25° C.).
On to `CC1OCC(O)C(O)(CN)[C@@H]1O` (stereo partly drawn) [1-deoxy-3(S)—C-(aminomethyl)-L-fucose], for which the 50% inhibitory concentration (IC50) was over 600 µM at LecBPAO1 [1] and over 300 µM at LecBPA14 [2].
Take `CCC1(O)C(O)COC(C)[C@H]1O` (stereo partly drawn) [1-deoxy-3(S)—C-(ethyl)-L-fucose]: the 50% inhibitory concentration (IC50) against LecBPAO1 [1] worked out at 471 ± 104 µM; on LecBPA14 [2], 41.5 ± 9.94 µM.
In the case of `CC(C)C(=O)NCC1(O)C(O)COC(C)[C@H]1O` (stereo partly drawn) [1-deoxy-3(S)—C-(isobutyrylamidomethyl)-L-fucose], the IC50 amounted to 348 ± 65 µM against LecBPAO1 [1] and 62.6 ± 12.4 µM against LecBPA14 [2].
As for `CC1OCC(O)C(O)(CNS(=O)(=O)C(C)C)[C@@H]1O` (stereo partly drawn) [1-deoxy-3(S)—C-(isopropylsulfonamidomethyl)-L-fucose], the IC50 is over 600 µM on LecBPAO1 [1] and 286 ± 77 µM at LecBPA14 [2].
For `CC1OCC(O)C(C)(O)[C@@H]1O` (stereo partly drawn) [1-deoxy-3(S)—C-(methyl)-L-fucose] the same measures were 49.6 ± 7.8 µM and 6.54 ± 1.34 µM.
Regarding `CC1OCC(O)C(O)(C(F)(F)F)[C@@H]1O` (stereo partly drawn) [1-deoxy-3(S)—C-(trifluoromethyl)-L-fucose], the IC50 at LecBPAO1 [1] was over 600 µM; against LecBPA14 [2], over 300 µM.
For `CC(=O)NCC[C@@]1(O)C(C)OCC(O)C1O` (stereo partly drawn) [1-deoxy-4(R)—C-(ethylacetamide) L-fucose] the same measures were 0.52 ± 0.03 µM and 0.18 ± 0.02 µM.
